In patent publication US20260262643A1, “HERBICIDAL BENZOXAZINES” (FMC CORPORATION, priority 2022, published 2026):

Assays:
[1] = system: pigweed, palmer; assay: Test A preemergence; assay type: in vivo, Amaranthus palmeri; conditions: 0 to 100 scale
Method in brief: (§1)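 Visual injury ratings on a 0–100 scale (100 = complete control) versus untreated controls, taken 10 days after treatment in greenhouse. Preemergence: directed soil spray onto seeded loam/sand. Postemergence: foliar application at one- to two-leaf stage, plants 2–10 cm. Formulation: non-phytotoxic solvent plus surfactant.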

[2] = system: corn; assay: Test A postemergence; assay type: in vivo, Zea mays; conditions: postemergence, 10 days
Method in brief: as §1

[3] = system: barnyardgrass; assay: Test A postemergence; assay type: in vivo, Echinochloa crusgalli; conditions: postemergence, 10 days
Description: (§2) Seeds of plant species selected from barnyardgrass (Echinochloa crusgalli), blackgrass (Alopecurus myosuroides), corn (Zea mays), foxtail, giant (giant foxtail, Setaria faberi), goosegrass (Eleusine indica), kochia (Bassia scoparia), oat, wild (wild oat, Avena fatua), pigweed, palmer (palmer amaranth, palmer pigweed, Amaranthus palmeri), Pigweed, Redroot (redroot pigweed, Amaranthus retroflexus), ragweed (common ragweed, Ambrosia artemisiifolia), ryegrass, Italian (italian ryegrass, Lolium multiflorum), soybean (Glycine max), and wheat (Triticum aestivum) were planted into a blend of loam soil and sand and treated preemergence with a directed soil spray using test chemicals formulated in a non-phytotoxic solvent mixture which included a surfactant. At the same time, plants selected from these crops and weed species and also galium (catchweed bedstraw, Galium aparine) and horseweed (Erigeron canadensis) were planted in pots containing the same blend of loam soil and sand and treated with postemergence applications of test chemicals formulated in the same manner. Plants ranged in height from 2 to 10 cm and were in the one- to two-leaf stage for the postemergence treatment. Treated plants and untreated controls were maintained in a greenhouse for 10 days, after which time all treated plants were compared to untreated controls and visually evaluated for injury. Plant response ratings, summarized in Table A, are based on a 0 to 100 scale where 0 is no effect and 100 is complete control. A dash (-) response means no test result.

[4] = system: sedge, umbrella; assay: Test B flooded paddy test; assay type: in vivo, Cyperus difformis; conditions: 250 g ai/ha, Flood, 13 days, 0 to 100 scale (0 no effect, 100 complete control)
Method in brief: (§3)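 Species grown to 2-leaf stage; pots flooded 3 cm above soil and compound applied directly to paddy water, depth maintained throughout. After 13 days in greenhouse, plants visually rated against controls on 0–100 scale (0 no effect, 100 complete control); dash means no result.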

[5] = system: ragweed; assay: Test A postemergence; assay type: in vivo, Ambrosia artemisiifolia; conditions: postemergence, 10 days
Method in brief: as §1

[6] = system: ducksalad; assay: Test B flooded paddy test; assay type: in vivo, Heteranthera limosa; conditions: 250 g ai/ha, Flood, 13 days, 0 to 100 scale (0 no effect, 100 complete control)
Method in brief: as §3

[7] = system: oat, wild; assay: Test A preemergence; assay type: in vivo, Avena fatua; conditions: 0 to 100 scale
Method in brief: as §1

[8] = system: corn; assay: Test A preemergence; assay type: in vivo, Zea mays; conditions: 0 to 100 scale
Method in brief: as §1

[9] = system: ryegrass, Italian; assay: Test A preemergence; assay type: in vivo, Lolium multiflorum; conditions: 0 to 100 scale
Method in brief: as §1

[10] = system: rice; assay: Test B flooded paddy test; assay type: in vivo, Oryza sativa; conditions: 250 g ai/ha, Flood, 13 days, 0 to 100 scale (0 no effect, 100 complete control)
Method in brief: as §3

[11] = system: pigweed, palmer; assay: Test A postemergence; assay type: in vivo, Amaranthus palmeri; conditions: postemergence, 10 days
Method in brief: as §1

[12] = system: horseweed; assay: Test A postemergence; assay type: in vivo, Erigeron canadensis; conditions: postemergence, 10 days
Method in brief: as §1

[13] = system: soybean; assay: Test A postemergence; assay type: in vivo, Glycine max; conditions: postemergence, 10 days
Method in brief: as §1

[14] = system: blackgrass; assay: Test A preemergence; assay type: in vivo, Alopecurus myosuroides; conditions: 0 to 100 scale
Method in brief: as §1

[15] = system: soybean; assay: Test A preemergence; assay type: in vivo, Glycine max; conditions: 0 to 100 scale
Method in brief: as §1

[16] = system: kochia; assay: Test A postemergence; assay type: in vivo, Bassia scoparia; conditions: postemergence, 10 days
Method in brief: as §1

[17] = system: wheat; assay: Test A preemergence; assay type: in vivo, Triticum aestivum; conditions: 0 to 100 scale
Method in brief: as §1

[18] = system: foxtail, giant; assay: Test A preemergence; assay type: in vivo, Setaria faberi; conditions: 0 to 100 scale
Method in brief: as §1

[19] = system: blackgrass; assay: Test A postemergence; assay type: in vivo, Alopecurus myosuroides; conditions: postemergence, 10 days
Method in brief: as §1

[20] = system: kochia; assay: Test A preemergence; assay type: in vivo, Bassia scoparia; conditions: 0 to 100 scale
Method in brief: as §1

[21] = system: barnyardgrass; assay: Test A preemergence; assay type: in vivo, Echinochloa crusgalli; conditions: visual injury after 10 days, 0 to 100 scale, 0 is no effect, 100 is complete control
Description: as §2

[22] = system: barnyardgrass; assay: Test B flooded paddy test; assay type: in vivo, Echinochloa crus-galli; conditions: 250 g ai/ha, Flood, 13 days, 0 to 100 scale (0 no effect, 100 complete control)
Method in brief: as §3

[23] = system: ryegrass, Italian; assay: Test A postemergence; assay type: in vivo, Lolium multiflorum; conditions: postemergence, 10 days
Method in brief: as §1

[24] = system: ragweed; assay: Test A preemergence; assay type: in vivo, Ambrosia artemisiifolia; conditions: 0 to 100 scale
Method in brief: as §1

[25] = system: wheat; assay: Test A postemergence; assay type: in vivo, Triticum aestivum; conditions: postemergence, 10 days
Method in brief: as §1

[26] = system: galium; assay: Test A postemergence; assay type: in vivo, Galium aparine; conditions: postemergence, 10 days
Method in brief: as §1

[27] = system: oat, wild; assay: Test A postemergence; assay type: in vivo, Avena fatua; conditions: postemergence, 10 days
Method in brief: as §1

[28] = 500 g ai/ha, visual injury after 10 days, 0 is no effect, 100 is complete control
[29] = 125 g ai/ha, 0 to 100 scale, 0 no effect, 100 complete control
[30] = 500 g ai/ha, visual injury, 0 to 100 scale (0 no effect, 100 complete control)

Cc1ccc(-n2cnc(C(C)(C)O)n2)cc1C(=O)N1C[C@H](C)Oc2c(Cl)cccc21 [Compound 149]
Plant response rating, Pigweed, Palmer ([1]; 125 g ai/ha): 90 | Plant response rating, Pigweed, Palmer [1, 28]: 100 | Corn plant response rating [2, 29]: 90 | Plant response rating, Corn [2, 30]: 100 | Barnyardgrass plant response rating [3, 29]: 50 | Plant response rating, Barnyardgrass [3, 30]: 100 | Plant response rating, Sedge, Umbrella [4]: 100 | Ragweed plant response rating [5, 29]: 80 | Plant response rating, Ragweed [5, 30]: 90 | Plant response rating, Ducksalad [6]: 75 | Plant response rating, Oat, Wild ([7]; 125 g ai/ha): 90 | Plant response rating, Oat, Wild [7, 28]: 90 | Plant response rating, Corn ([8]; 125 g ai/ha): 60 | Plant response rating, Corn [8, 28]: 90 | Plant response rating, Ryegrass, Italian ([9]; 125 g ai/ha): 100 | Plant response rating, Ryegrass, Italian [9, 28]: 100 | Plant response rating, Rice [10]: 20 | Pigweed, Palmer plant response rating [11, 29]: 80 | Plant response rating, Pigweed, Palmer [11, 30]: 90 | Horseweed plant response rating [12, 29]: 50 | Plant response rating, Horseweed [12, 30]: 70 | Soybean plant response rating [13, 29]: 100 | Plant response rating, Soybean [13, 30]: 100 | Plant response rating, Blackgrass ([14]; 125 g ai/ha): 80 | Plant response rating, Blackgrass [14, 28]: 90 | Plant response rating, Soybean ([15]; 125 g ai/ha): 100 | Plant response rating, Soybean [15, 28]: 100 | Kochia plant response rating [16, 29]: 80 | Plant response rating, Kochia [16, 30]: 90 | Plant response rating, Wheat ([17]; 125 g ai/ha): 30 | Plant response rating, Wheat [17, 28]: 90 | Plant response rating, Foxtail, Giant ([18]; 125 g ai/ha): 100 | Plant response rating, Foxtail, Giant [18, 28]: 100 | Blackgrass plant response rating [19, 29]: 90 | Plant response rating, Blackgrass [19, 30]: 90 | Plant response rating, Kochia ([20]; 125 g ai/ha): 100 | Plant response rating, Kochia [20, 28]: 100 | Plant response rating, Barnyardgrass ([21]; 125 g ai/ha): 100 | Plant response rating, Barnyardgrass ([21]; 500 g ai/ha): 100 | Plant response rating, Barnyardgrass [22]: 35 | Ryegrass, Italian plant response rating [23, 29]: 80 | Plant response rating, Ryegrass, Italian [23, 30]: 100 | Plant response rating, Ragweed ([24]; 125 g ai/ha): 100 | Plant response rating, Ragweed [24, 28]: 90 | Wheat plant response rating [25, 29]: 90 | Plant response rating, Wheat [25, 30]: 90 | Galium plant response rating [26, 29]: 100 | Plant response rating, Galium [26, 30]: 100 | Oat, Wild plant response rating [27, 29]: 90 | Plant response rating, Oat, Wild [27, 30]: 90
